From the supplement of paper PMC6045584
± gives the standard deviation of the averaged measurements.

compound: Nc1ncn([C@H]2C[C@H](O)[C@@H](CO)O2)c(=O)n1 [DECITABINE]; test: surviving fraction relative to DMSO-only wells; higher = less growth inhibition; conditions: 5 nM; exposure time: 5 days
Method in brief: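 Log-phase tumour cells were seeded at 250–500 per well in 384-well plates and, from 24 hours after seeding, exposed continuously for five days to inhibitors at 0.5, 1, 5, 10, 50, 100, 500 and 1000 nM. Surviving fraction is CellTiter-Glo luminescence normalised to the median of DMSO-only wells. Luminescence was measured after 10 minutes at room temperature, and only lines screened three times with replicate Pearson r >0.7 and median Z' >0.3 were kept.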

Test System | surviving fraction
SCC36 HEADNECK | 1.05 ± 0.15
OS25HAL BONE | 1.08 ± 0.033
HCC1806 BREAST | 0.531 ± 0.02
HU09 BONE | 1.12 ± 0.13
SG43 HEADNECK | 0.953 ± 0.11
U2OS BONE | 1.04 ± 0.054
HOSMNG BONE | 1.02 ± 0.061
CASKI CERVIX | 0.858 ± 0.056
SUM44 BREAST | 1.17 ± 0.23
MDAMB231 BREAST | 1.01 ± 0.028
CAL51 BREAST | 1 ± 0.041
MDAMB436 BREAST | 1 ± 0.12
HSSYII SYNOVIAL | 0.933 ± 0.048
RDES SOFT TISSUE | 1.18 ± 0.15
MDAMB157 BREAST | 0.922 ± 0.13
CHLA90 AUTONOMIC GANGLIA | 0.953 ± 0.06
CADOES1 SOFT TISSUE | 0.772 ± 0.11
SG31 HEADNECK | 1.14 ± 0.083
SCC47 HEADNECK | 1.08 ± 0.012
S68 BREAST | 1.15 ± 0.28
SNU475 LIVER | 1.051 ± 0.0036

Test System | surviving fraction
22RV1 PROSTATE | 0.964 ± 0.19
SG32 HEADNECK | 1.12 ± 0.12
SCC003 HEADNECK | 1.06 ± 0.067
JURKAT HAEMATOPOIETIC AND LYMPHOID TISSUE | 0.823 ± 0.022
HT1080 SOFT TISSUE | 1.07 ± 0.024
CAL120 BREAST | 0.948 ± 0.072
MCF7 BREAST | 0.887 ± 0.02
MFM223 BREAST | 1.45 ± 0.48
LNCAP PROSTATE | 0.954 ± 0.083
PCI30 HEADNECK | 0.987 ± 0.053
OSHN BONE | 1.11 ± 0.024
SG28 HEADNECK | 1.2 ± 0.062
HOS BONE | 1.03 ± 0.031
HUO3N1 BONE | 1.03 ± 0.056
BT20 BREAST | 1.33 ± 0.072
SJSA1 BONE | 1.63 ± 0.11
JIMT1 BREAST | 1 ± 0.018
HCC78 LUNG | 0.899 ± 0.15
NY BONE | 1 ± 0.028
NOS1 BONE | 1.28 ± 0.055

same assay, conditions: 10 nM; exposure time: 5 days

Test System | surviving fraction
SCC36 HEADNECK | 1.05 ± 0.09
OS25HAL BONE | 1.07 ± 0.011
HCC1806 BREAST | 0.483 ± 0.031
HU09 BONE | 0.997 ± 0.072
SG43 HEADNECK | 1.03 ± 0.48
U2OS BONE | 1.01 ± 0.021
HOSMNG BONE | 1.02 ± 0.072
CASKI CERVIX | 0.898 ± 0.095
SUM44 BREAST | 1.14 ± 0.17
MDAMB231 BREAST | 1 ± 0.022
CAL51 BREAST | 0.952 ± 0.046
MDAMB436 BREAST | 0.949 ± 0.09
HSSYII SYNOVIAL | 0.938 ± 0.073
RDES SOFT TISSUE | 0.972 ± 0.05
MDAMB157 BREAST | 0.897 ± 0.065
CHLA90 AUTONOMIC GANGLIA | 0.902 ± 0.017
CADOES1 SOFT TISSUE | 0.951 ± 0.047
SG31 HEADNECK | 1.13 ± 0.1
SCC47 HEADNECK | 1.09 ± 0.067
S68 BREAST | 1.13 ± 0.24
SNU475 LIVER | 1.02 ± 0.026

Test System | surviving fraction
22RV1 PROSTATE | 0.897 ± 0.19
SG32 HEADNECK | 1.16 ± 0.067
SCC003 HEADNECK | 1.03 ± 0.055
JURKAT HAEMATOPOIETIC AND LYMPHOID TISSUE | 0.746 ± 0.034
HT1080 SOFT TISSUE | 1.1 ± 0.058
CAL120 BREAST | 0.952 ± 0.044
MCF7 BREAST | 0.803 ± 0.02
MFM223 BREAST | 1.47 ± 0.53
LNCAP PROSTATE | 1.01 ± 0.11
PCI30 HEADNECK | 1.06 ± 0.034
OSHN BONE | 1.07 ± 0.032
SG28 HEADNECK | 1.06 ± 0.098
HOS BONE | 0.995 ± 0.011
HUO3N1 BONE | 1.05 ± 0.019
BT20 BREAST | 1.28 ± 0.12
SJSA1 BONE | 0.545 ± 0.031
JIMT1 BREAST | 0.9743 ± 0.0064
HCC78 LUNG | 0.913 ± 0.12
NY BONE | 0.939 ± 0.018
NOS1 BONE | 0.989 ± 0.08
